In brackets after ≈: the same amount, converted by molar mass. Non-standard residues stand in square brackets, D forms with d. Residues, ends and D or L forms follow the SMILES beside them. Cha = N[C@@H](CC1CCCCC1)C(=O)O; Cit = NC(=O)NCCC[C@H](N)C(=O)O; Tle = CC(C)(C)[C@H](N)C(=O)O; dDab = NCC[C@@H](N)C(=O)O; Nle = CCCC[C@H](N)C(=O)O; Orn = NCCC[C@H](N)C(=O)O; Dab = NCC[C@H](N)C(=O)O
Tests used:
P. aeruginosa ATCC 27853 = type: cell-based, Pseudomonas aeruginosa; details: ATCC 27853
Procedure, shortened: (§1)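 Peptide activity was measured by a modified NCCLS broth microdilution method in Mueller-Hinton broth with 0.02% BSA. An inoculum adjusted against a 0.5 McFarland standard to about 10^6 CFU/ml was mixed 1:1 with two-fold serial peptide dilutions.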

HELA cells (Acc57) = assay: Cytotoxicity assay, MTT reduction (LC 50, GI 50); type: cell-based
Procedure, shortened: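 Read-out was MTT reduction (A595) after 48 h peptide exposure (12.5–50 μM, triplicates) of HeLa cells plated at 7.0×10^3/well and precultured 24 h. Growth % was normalised to a time-zero reading. Linear trend interpolation gave the concentration at −50% growth (LC50) and at 50% growth (GI50).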

[1] = test system: Pseudomonas aeruginosa IMP 1 Livermore 3140; type: cell-based; details: IMP 1 Livermore 3140
Procedure, shortened: as §1

[2] = test system: Pseudomonas aeruginosa P8191900; type: cell-based; details: P8191900
Procedure, shortened: as §1

[3] = test system: Pseudomonas aeruginosa P1021913; type: cell-based; details: P1021913
Procedure, shortened: as §1

[4] = test system: Pseudomonas aeruginosa P1021903; type: cell-based; details: P1021903
Procedure, shortened: as §1

[5] = test system: human red blood cells (hRBC); assay: Hemolysis; type: cell-based; details: 100

MIC P. aeruginosa ATCC 27853 (P. aeruginosa ATCC 27853) | Average MIC (P. aeruginosa) | MIC P. aeruginosa IMP1 Livermore 3140 [1] | MIC P. aeruginosa P8191900 [2] | MIC P. aeruginosa P1021913 [3] | MIC P. aeruginosa P1021903 [4] | Structure (SMILES) | Cytotoxicity GI50 Hela cells (HELA cells (Acc57)) | Hemolysis at 100 μg/ml [5]
0.25 µg/mL (≈ 0.153 µM) | 0.65 µg/mL | 1.00 µg/mL (≈ 0.611 µM) | 0.50 µg/mL (≈ 0.305 µM) | 1.00 µg/mL (≈ 0.611 µM) | 0.50 µg/mL (≈ 0.305 µM) | CC[C@H](C)[C@@H]1NC(=O)[C@H](Cc2c[nH]c3ccccc23)NC(=O)[C@H](CCC(=O)O)NC(=O)[C@@H]2CCCN2C(=O)[C@H]2CCCN2C(=O)[C@H](CCC(N)=O)NC(=O)[C@H](C)NC(=O)[C@H](CCN)NC(=O)[C@H](CCN)NC(=O)[C@H](Cc2c[nH]c3ccccc23)NC(=O)[C@H](CCN)NC(=O)[C@@H](CCN)NC(=O)[C@H](CCCCN)NC(=O)[C@H](CCN)NC1=O [Example 45] (cyclo(EWI[Dab]K[dDab][Dab]W[Dab][Dab]AQ[dP]P)) | 50 µM | 0.2%
0.09 µg/mL (≈ 0.0559 µM) | 0.28 µg/mL | 0.50 µg/mL (≈ 0.311 µM) | 0.30 µg/mL (≈ 0.186 µM) | 0.21 µg/mL (≈ 0.131 µM) | 0.30 µg/mL (≈ 0.186 µM) | CC[C@H](C)[C@@H]1NC(=O)[C@H](Cc2c[nH]c3ccccc23)NC(=O)[C@H]([C@@H](C)O)NC(=O)[C@@H]2CCCN2C(=O)[C@H]2CCCN2C(=O)[C@H](CCN)NC(=O)[C@H](C)NC(=O)[C@H](CCN)NC(=O)[C@H](CCCCN)NC(=O)[C@H](Cc2c[nH]c3ccccc23)NC(=O)[C@H](CCN)NC(=O)[C@H](CCN)NC(=O)[C@H](CCCCN)NC(=O)[C@H](CCN)NC1=O [Example 27] (cyclo(TWI[Dab]K[Dab][Dab]WK[Dab]A[Dab][dP]P)) | 50 µM | 0.6%
0.09 µg/mL (≈ 0.0564 µM) | 0.32 µg/mL | 0.75 µg/mL (≈ 0.47 µM) | 0.13 µg/mL (≈ 0.0815 µM) | 0.50 µg/mL (≈ 0.314 µM) | 0.13 µg/mL (≈ 0.0815 µM) | CC[C@H](C)[C@@H]1NC(=O)[C@H](Cc2c[nH]c3ccccc23)NC(=O)[C@H](CCC(=O)O)NC(=O)[C@@H]2CCCN2C(=O)[C@H]2CCCN2C(=O)[C@H](CCN)NC(=O)[C@H](C)NC(=O)[C@H](CCN)NC(=O)[C@H](CCN)NC(=O)[C@H](Cc2c[nH]c3ccccc23)NC(=O)[C@H](CCN)NC(=O)[C@@H](CCN)NC(=O)[C@H](CCCN)NC(=O)[C@H](CCN)NC1=O [Example 47] (cyclo(EWI[Dab][Orn][dDab][Dab]W[Dab][Dab]A[Dab][dP]P)) | 50 µM | 0.2%
0.06 µg/mL (≈ 0.0367 µM) | 0.28 µg/mL | 0.30 µg/mL (≈ 0.183 µM) | 0.10 µg/mL (≈ 0.0611 µM) | 0.81 µg/mL (≈ 0.495 µM) | 0.10 µg/mL (≈ 0.0611 µM) | CC[C@H](C)[C@@H]1NC(=O)[C@H](Cc2c[nH]c3ccccc23)NC(=O)[C@H](CCCNC(N)=O)NC(=O)[C@@H]2CCCN2C(=O)[C@H]2CCCN2C(=O)[C@H](CCN)NC(=O)[C@H](C)NC(=O)[C@H](CCN)NC(=O)[C@H](CCN)NC(=O)[C@H](Cc2c[nH]c3ccccc23)NC(=O)[C@H](CCN)NC(=O)[C@H](CCN)NC(=O)[C@H](CCCCN)NC(=O)[C@H](CCN)NC1=O [Example 18] (cyclo([Cit]WI[Dab]K[Dab][Dab]W[Dab][Dab]A[Dab][dP]P)) | 50 µM | 0.4%
0.05 µg/mL (≈ 0.0308 µM) | 0.23 µg/mL | 0.43 µg/mL (≈ 0.265 µM) | 0.18 µg/mL (≈ 0.111 µM) | 0.31 µg/mL (≈ 0.191 µM) | 0.18 µg/mL (≈ 0.111 µM) | CC[C@H](C)[C@@H]1NC(=O)[C@H](Cc2c[nH]c3ccccc23)NC(=O)[C@H]([C@@H](C)O)NC(=O)[C@@H]2CCCN2C(=O)[C@H]2CCCN2C(=O)[C@H](CCN)NC(=O)[C@H]([C@@H](C)CC)NC(=O)[C@H](CCN)NC(=O)[C@H](CCN)NC(=O)[C@H](Cc2c[nH]c3ccccc23)NC(=O)[C@H](CCN)NC(=O)[C@H](CCN)NC(=O)[C@H](CCCCN)NC(=O)[C@H](CCN)NC1=O [Example 8] (cyclo(TWI[Dab]K[Dab][Dab]W[Dab][Dab]I[Dab][dP]P)) | 50 µM | 0%
0.40 µg/mL (≈ 0.241 µM) | >1 µg/mL | >2 µg/mL | 1.00 µg/mL (≈ 0.601 µM) | 0.75 µg/mL (≈ 0.451 µM) | 2.00 µg/mL (≈ 1.2 µM) | CC[C@H](C)[C@@H]1NC(=O)[C@H](Cc2c[nH]c3ccccc23)NC(=O)[C@H]([C@@H](C)O)NC(=O)[C@@H]2CCCN2C(=O)[C@H]2CCCN2C(=O)[C@H](CCN)NC(=O)[C@H](CC2CCCCC2)NC(=O)[C@H](CCN)NC(=O)[C@H](CCN)NC(=O)[C@H](Cc2c[nH]c3ccccc23)NC(=O)[C@H](CCN)NC(=O)[C@H](CCN)NC(=O)[C@H](CCCCN)NC(=O)[C@H](CCN)NC1=O [Example 12] (cyclo(TWI[Dab]K[Dab][Dab]W[Dab][Dab][Cha][Dab][dP]P)) | 50 µM | 0.7%
0.13 µg/mL (≈ 0.0808 µM) | 0.34 µg/mL | 0.75 µg/mL (≈ 0.466 µM) | 0.21 µg/mL (≈ 0.131 µM) | 0.31 µg/mL (≈ 0.193 µM) | 0.31 µg/mL (≈ 0.193 µM) | CC[C@H](C)[C@@H]1NC(=O)[C@H](Cc2c[nH]c3ccccc23)NC(=O)[C@H]([C@@H](C)O)NC(=O)[C@@H]2CCCN2C(=O)[C@H]2CCCN2C(=O)[C@H](CCN)NC(=O)[C@H](C)NC(=O)[C@H](CCN)NC(=O)[C@H](CCN)NC(=O)[C@H](Cc2c[nH]c3ccccc23)NC(=O)[C@H](CCC(N)=O)NC(=O)[C@H](CCN)NC(=O)[C@H](CCCCN)NC(=O)[C@H](CCN)NC1=O [Example 39] (cyclo(TWI[Dab]K[Dab]QW[Dab][Dab]A[Dab][dP]P)) | 50 µM | 0.4%
0.06 µg/mL (≈ 0.037 µM) | 0.22 µg/mL | 0.43 µg/mL (≈ 0.265 µM) | 0.18 µg/mL (≈ 0.111 µM) | 0.24 µg/mL (≈ 0.148 µM) | 0.18 µg/mL (≈ 0.111 µM) | CC[C@H](C)[C@@H]1NC(=O)[C@H](Cc2c[nH]c3ccccc23)NC(=O)[C@H]([C@@H](C)O)NC(=O)[C@@H]2CCCN2C(=O)[C@H]2CCCN2C(=O)[C@H](CCN)NC(=O)[C@H](C(C)(C)C)NC(=O)[C@H](CCN)NC(=O)[C@H](CCN)NC(=O)[C@H](Cc2c[nH]c3ccccc23)NC(=O)[C@H](CCN)NC(=O)[C@H](CCN)NC(=O)[C@H](CCCCN)NC(=O)[C@H](CCN)NC1=O [Example 36] (cyclo(TWI[Dab]K[Dab][Dab]W[Dab][Dab][Tle][Dab][dP]P)) | 50 µM | 0.1%
0.08 µg/mL (≈ 0.0497 µM) | 0.22 µg/mL | 0.40 µg/mL (≈ 0.249 µM) | 0.30 µg/mL (≈ 0.186 µM) | 0.18 µg/mL (≈ 0.112 µM) | 0.13 µg/mL (≈ 0.0808 µM) | CC[C@H](C)[C@@H]1NC(=O)[C@H](Cc2c[nH]c3ccccc23)NC(=O)[C@H]([C@@H](C)O)NC(=O)[C@@H]2CCCN2C(=O)[C@H]2CCCN2C(=O)[C@H](CCN)NC(=O)[C@H](C)NC(=O)[C@H](CCN)NC(=O)[C@H](CCN)NC(=O)[C@H](Cc2c[nH]c3ccccc23)NC(=O)[C@H](CCCCN)NC(=O)[C@H](CCN)NC(=O)[C@H](CCCCN)NC(=O)[C@H](CCN)NC1=O [Example 26] (cyclo(TWI[Dab]K[Dab]KW[Dab][Dab]A[Dab][dP]P)) | 50 µM | 0.8%
0.05 µg/mL (≈ 0.0308 µM) | 0.33 µg/mL | 0.60 µg/mL (≈ 0.37 µM) | 0.24 µg/mL (≈ 0.148 µM) | 0.48 µg/mL (≈ 0.296 µM) | 0.29 µg/mL (≈ 0.179 µM) | C[C@@H]1NC(=O)[C@H](CCN)NC(=O)[C@H](CCN)NC(=O)[C@H](Cc2c[nH]c3ccccc23)NC(=O)[C@H](CCN)NC(=O)[C@H](CCN)NC(=O)[C@H](CCCCN)NC(=O)[C@H](CCN)NC(=O)[C@H](CC2CCCCC2)NC(=O)[C@H](Cc2c[nH]c3ccccc23)NC(=O)[C@H]([C@@H](C)O)NC(=O)[C@@H]2CCCN2C(=O)[C@H]2CCCN2C(=O)[C@H](CCN)NC1=O [Example 34] (cyclo(TW[Cha][Dab]K[Dab][Dab]W[Dab][Dab]A[Dab][dP]P)) | 50 µM | 0%
0.21 µg/mL (≈ 0.129 µM) | >1 µg/mL | >2 µg/mL | 0.75 µg/mL (≈ 0.462 µM) | 0.75 µg/mL (≈ 0.462 µM) | 1.50 µg/mL (≈ 0.924 µM) | CCCC[C@@H]1NC(=O)[C@H](CCN)NC(=O)[C@H](CCN)NC(=O)[C@H](Cc2c[nH]c3ccccc23)NC(=O)[C@H](CCN)NC(=O)[C@H](CCN)NC(=O)[C@H](CCCCN)NC(=O)[C@H](CCN)NC(=O)[C@H]([C@@H](C)CC)NC(=O)[C@H](Cc2c[nH]c3ccccc23)NC(=O)[C@H]([C@@H](C)O)NC(=O)[C@@H]2CCCN2C(=O)[C@H]2CCCN2C(=O)[C@H](CCN)NC1=O [Example 9] (cyclo(TWI[Dab]K[Dab][Dab]W[Dab][Dab][Nle][Dab][dP]P)) | 50 µM | 0.7%

Reference: patent US9521846B2, “Template-fixed peptidomimetics with antimicrobial activity” (priority 2006, dated 2016)
